A short description of assay [1]: Competitive inhibition of Agrobacterium sp. beta-glucosidase using 4-nitrophenyl beta-D-galactopyranoside as substrate pre-incubated for up to 5 mins before substrate addition.
A short description of assay [2]: Competitive inhibition of Escherichia coli lacZ beta-galactosidase using 4-nitrophenyl beta-D-galactopyranoside as substrate pre-incubated for up to 5 mins before substrate addition.
In assay [3] the target is T1, Beta-galactosidase (Bos taurus, UniProt Q58D55).
T1 sequence (Q58D55 whole entry): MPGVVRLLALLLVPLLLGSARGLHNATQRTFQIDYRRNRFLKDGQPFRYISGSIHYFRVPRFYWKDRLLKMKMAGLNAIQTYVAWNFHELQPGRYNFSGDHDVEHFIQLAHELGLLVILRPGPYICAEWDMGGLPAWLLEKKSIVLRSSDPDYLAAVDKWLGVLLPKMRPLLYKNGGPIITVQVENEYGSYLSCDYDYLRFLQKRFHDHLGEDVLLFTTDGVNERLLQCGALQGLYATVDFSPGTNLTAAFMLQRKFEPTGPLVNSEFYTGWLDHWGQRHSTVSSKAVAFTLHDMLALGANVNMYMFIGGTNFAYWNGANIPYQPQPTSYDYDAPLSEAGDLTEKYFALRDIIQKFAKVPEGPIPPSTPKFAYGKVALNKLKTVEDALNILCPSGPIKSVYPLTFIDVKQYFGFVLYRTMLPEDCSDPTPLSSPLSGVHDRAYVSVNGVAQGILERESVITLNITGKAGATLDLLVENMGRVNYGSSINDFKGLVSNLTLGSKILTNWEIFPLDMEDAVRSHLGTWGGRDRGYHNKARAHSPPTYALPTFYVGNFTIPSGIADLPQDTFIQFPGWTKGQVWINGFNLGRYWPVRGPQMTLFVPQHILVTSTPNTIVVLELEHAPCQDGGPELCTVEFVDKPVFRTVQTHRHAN
The experiment in a line: Competitive inhibition of Bovine liver beta-galactosidase using 4-nitrophenyl beta-D-galactopyranoside as substrate pre-incubated for up to 5 mins before substrate addition.

Assay [4] can be described thus: Competitive inhibition of Fabrazyme (human recombinant alpha-galactosidase) using 4-nitrophenyl alpha-galactopyranoside as substrate pre-incubated for up to 5 mins before substrate addition.
In assay [5] the target is T2, Lysosomal acid glucosylceramidase (Homo sapiens, UniProt P04062).
T2 sequence (P04062 whole entry): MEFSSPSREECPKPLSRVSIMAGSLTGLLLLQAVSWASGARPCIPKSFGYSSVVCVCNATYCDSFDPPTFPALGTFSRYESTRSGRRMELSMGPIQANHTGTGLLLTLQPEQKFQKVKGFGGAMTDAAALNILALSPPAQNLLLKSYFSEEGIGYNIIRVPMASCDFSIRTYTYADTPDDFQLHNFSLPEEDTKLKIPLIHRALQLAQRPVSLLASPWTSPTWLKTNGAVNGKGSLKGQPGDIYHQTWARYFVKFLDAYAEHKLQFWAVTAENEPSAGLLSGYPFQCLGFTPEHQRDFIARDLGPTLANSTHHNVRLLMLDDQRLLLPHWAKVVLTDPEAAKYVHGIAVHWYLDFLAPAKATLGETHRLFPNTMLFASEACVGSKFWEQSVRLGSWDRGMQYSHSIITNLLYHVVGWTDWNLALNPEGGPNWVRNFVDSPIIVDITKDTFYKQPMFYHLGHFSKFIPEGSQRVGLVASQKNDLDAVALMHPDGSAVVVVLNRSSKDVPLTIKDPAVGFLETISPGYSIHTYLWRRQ
Briefly: Competitive inhibition of recombinant beta-glucocerebrosidase (unknown origin) using 4-nitrophenyl beta-D-[…] as substrate pre-incubated for up to 5 mins before substrate addition.

Assay [6] can be described thus: Competitive inhibition of Saccharomyces cerevisiae alpha-glucosidase using 4-nitrophenyl alpha-[…] as substrate pre-incubated for up to 5 mins before substrate addition.
The target of assay [7] is T3, Beta-galactosidase (Homo sapiens, UniProt P16278).
T3 sequence (P16278 whole entry): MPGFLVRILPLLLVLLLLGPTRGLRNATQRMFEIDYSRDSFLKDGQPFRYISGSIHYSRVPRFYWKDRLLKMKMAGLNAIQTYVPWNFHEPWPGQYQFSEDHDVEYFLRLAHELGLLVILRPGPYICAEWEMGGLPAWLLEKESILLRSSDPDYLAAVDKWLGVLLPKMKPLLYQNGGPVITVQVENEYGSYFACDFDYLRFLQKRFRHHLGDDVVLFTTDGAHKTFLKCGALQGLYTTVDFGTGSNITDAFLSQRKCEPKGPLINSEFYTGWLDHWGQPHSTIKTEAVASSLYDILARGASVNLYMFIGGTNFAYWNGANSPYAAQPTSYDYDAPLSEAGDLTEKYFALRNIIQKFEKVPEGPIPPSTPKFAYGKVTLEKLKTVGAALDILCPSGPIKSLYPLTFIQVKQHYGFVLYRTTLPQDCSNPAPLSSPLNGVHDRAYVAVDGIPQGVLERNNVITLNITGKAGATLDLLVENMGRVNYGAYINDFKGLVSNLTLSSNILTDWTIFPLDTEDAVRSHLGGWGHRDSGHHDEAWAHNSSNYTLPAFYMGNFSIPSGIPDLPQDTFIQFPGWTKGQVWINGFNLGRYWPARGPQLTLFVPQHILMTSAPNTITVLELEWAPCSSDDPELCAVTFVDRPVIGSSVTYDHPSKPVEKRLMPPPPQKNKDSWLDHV
Briefly: Competitive inhibition of human fibroblast lysosomal beta-galactosidase using 4-methylumbelliferyl-beta-D-galactopyranoside as substrate pre-incubated for up to 5 mins before substrate addition and measured after 30 mins.

The subject of assay [8] is T4, Beta-galactosidase (Homo sapiens), P16278 [R201C].
T4 sequence (whole entry): T3 sequence (P16278 whole entry) with R201C
The experiment in a line: Chaperone activity at beta-galactosidase R201C mutant isolated from human patient fibroblasts assessed as increase in enzyme activity at 1 uM using 4-nitrophenyl beta-D-galactopyranoside as substrate relative to untreated control.

Assay [9] has the same test system. Briefly: Chaperone activity at beta-galactosidase R201C mutant isolated from human patient fibroblasts assessed as increase in enzyme activity at 0.05 uM using 4-nitrophenyl beta-D-galactopyranoside as substrate relative to untreated control.
Assay [10] shares this test system. The experiment in a line: Chaperone activity at beta-galactosidase R201C mutant isolated from human patient fibroblasts assessed as increase in enzyme activity at 0.2 uM using 4-nitrophenyl beta-D-galactopyranoside as substrate relative to untreated control.
The test system is the same in assay [11]. The experiment in a line: Inhibition of beta-galactosidase R201C mutant isolated from human patient fibroblasts at 1 uM using 4-nitrophenyl beta-D-galactopyranoside as substrat.
Assay [12] shares this test system. The experiment in a line: Chaperone activity at beta-galactosidase R201C mutant isolated from human patient fibroblasts assessed as increase increase in thermal stability at 0.2 uM at 48 degC by thermal stability assay.
Assay [13] shares this test system. Briefly: Chaperone activity at beta-galactosidase R201C mutant isolated from human patient fibroblasts assessed as increase in enzyme activity at 0.1 uM using 4-nitrophenyl beta-D-galactopyranoside as substrate relative to untreated control.
Assay [14] shares this test system. The experiment in a line: Chaperone activity at beta-galactosidase R201C mutant isolated from human patient fibroblasts assessed as increase in enzyme activity at 10 uM using 4-nitrophenyl beta-D-galactopyranoside as substrate relative to untreated control.

Each structure is given as a SMILES string. Numbering of substitutions follows the chain as printed. The source made the active and inactive calls. No cut-off for these calls is given here.

The record followed here is ChEMBL document CHEMBL4033736, “A new type of pharmacological chaperone for GM1-gangliosidosis related human lysosomal β-galactosidase: N-Substituted 5-amino-1-hydroxymethyl-cyclopentanetriols” (Bioorg Med Chem Lett, 2017).

The Ki is a measure of affinity in units of concentration, obtained from inhibition or displacement.

Regarding `NCCCCCCN[C@H]1[C@H](O)[C@@H](O)[C@@H](O)[C@H]1CO`, the Ki is 0.096 µM in assay [1]; 16 µM in [2]; 31 µM at Beta-galactosidase [3]; more than 2000 µM in [4]; 54.2 µM in assay [5]; more than 2000 µM in assay [6]. In addition, affinity on Beta-galactosidase [7] was put at a Ki of 9.2 µM. Besides, the result in assay [8] was inactive. The fold change (FC) in [9] worked out at 4; in [10], 5. For the same molecule, the inhibition entry in assay [11] is “Active”. Besides, in assay [12], the result was Active.

For the molecule `CCCCCCCCN[C@@H]1C=C(CO)[C@H](O)[C@H](O)[C@H]1O`, the inhibitory constant (Ki) in assay [1] was 7.7 µM; in [2], 2.8 µM; in [4] it was more than 2000 µM; in assay [5] it was 83 µM; in assay [6] it was more than 2000 µM; at Beta-galactosidase [7], 0.51 µM.

With `N#CCCCN[C@H]1[C@H](O)[C@@H](O)[C@@H](O)[C@H]1CO`, the inhibition constant (Ki) in assay [1] was 0.0024 µM; in assay [2], 0.068 µM; on Beta-galactosidase [3] it was 0.13 µM; in assay [4], more than 2000 µM; in [5] it was 10.3 µM; in assay [6], more than 2000 µM.

Take `CN(C)c1cccc2c(S(=O)(=O)NCCCCCCN[C@H]3[C@H](O)[C@@H](O)[C@@H](O)[C@H]3CO)cccc12`: the inhibitory constant (Ki) in assay [1] is 0.0012 µM; in assay [2], 0.01 µM; at Beta-galactosidase [3] it was 0.0053 µM; in assay [4] it was 238 µM; in assay [5], 0.019 µM; in [6] it was more than 2000 µM. The Ki at Beta-galactosidase [7] turned out to be 0.29 µM. Moreover, the fold change (FC) is 4 in assay [13], 6 in assay [8] and 7.4 in assay [14].

With `N#CCCCCCN[C@H]1[C@H](O)[C@@H](O)[C@@H](O)[C@H]1CO`, the Ki was 0.006 µM in assay [1]; 0.13 µM in assay [2]; 0.11 µM on Beta-galactosidase [3]; more than 2000 µM in assay [4]; 10.7 µM in assay [5]; more than 2000 µM in assay [6].

Regarding `OC[C@@H]1[C@H](O)[C@H](O)[C@@H](O)[C@@H]1N1CCCC1`, the inhibitory constant (Ki) in [1] was 1.8 µM; in assay [2] it was 33 µM; in assay [4] it was more than 2000 µM; in assay [5], 123 µM; in [6], more than 2000 µM.

As to `CN(C)c1cccc2c(S(=O)(=O)NCCCCCCN(C)[C@H]3[C@H](O)[C@@H](O)[C@@H](O)[C@H]3CO)cccc12`, the inhibitory constant (Ki) is 0.0028 µM in assay [1]; 0.016 µM in assay [2]; more than 2000 µM in assay [4]; 0.001 µM in assay [5]; more than 2000 µM in [6].
